How the values were obtained:
Format in all cases: in vivo
Set-up in all cases: key: 0 is no effect; 10 is complete control
[1] = test system: cocklebur (Xanthium strumarium); assay: Test B pre-/postemergence
In short: (§1)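 Response scores run from 0, meaning no effect, to 10, meaning complete control, assigned by eye relative to controls twelve to sixteen days after spraying. Treatment was both preemergence on planted seed and postemergence on plants at the 1- to 4-leaf stage.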

[2] = test system: corn (Zea mays); assay: Test B pre-/postemergence
In short: as §1

[3] = test system: giant foxtail (Setaria faberii); assay: Test B pre-/postemergence
In short: as §1

[4] = test system: rape (Brassica napus); assay: Test B pre-/postemergence
In short: as §1

[5] = test system: broadleaf signalgrass (Brachiaria decumbens); assay: Test B pre-/postemergence
In short: as §1

[6] = test system: wheat (Triticum aestivum); assay: Test B pre-/postemergence
In short: as §1

[7] = test system: soybean (Glycine max); assay: Test B pre-/postemergence
In short: as §1

[8] = test system: pigweed (Amaranthus retroflexus); assay: Test B pre-/postemergence
In short: as §1

[9] = test system: bedstraw (Galium aparine); assay: Test B pre-/postemergence; details: Postemergence
In short: as §1

[10] = test system: purple nutsedge (Cyperus rotundus); assay: Test B pre-/postemergence; details: Preemergence
In short: as §1

[11] = test system: sugar beet (Beta vulgaris); assay: Test B pre-/postemergence
In short: as §1

[12] = test system: crabgrass (Digitaria sanguinalis); assay: Test B pre-/postemergence
In short: as §1

[13] = test system: wild oat (Avena fatua); assay: Test B pre-/postemergence
In short: as §1

[14] = test system: blackgrass (Alopecurus myosuroides); assay: Test B pre-/postemergence
In short: as §1

[15] = test system: velvetleaf (Abutilon theophrasti); assay: Test B pre-/postemergence
In short: as §1

[16] = test system: momingglory (Ipomoea hederacea); assay: Test B pre-/postemergence
In short: as §1

[17] = test system: duck salad (Heteranthera limosa); assay: Test B flood test
In short: (§2)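 Each value is a visual injury score relative to controls, with 10 meaning complete control and 0 no effect. Evaluation took place twelve to sixteen days after the 2-leaf-stage plants were treated and kept in the greenhouse.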

[18] = test system: bamyardgrass (Echinochloa crus-galli); assay: Test B flood test
In short: as §2

[19] = test system: smallflower flatsedge (Cyperus difformis); assay: Test B flood test
In short: as §2

[20] = test system: rice (Oryza sativa); assay: Test B flood test
In short: as §2

[21] = Preemergence, Rate 62 g/ha, scale of 0 to 10
[22] = Rate 62 g/ha, Postemergence (flood test)
[23] = Rate 125 g/ha, Postemergence section (flood test species)
[24] = Rate 250 g/ha, Postemergence (flood test species)

For `O=C(c1cccc(C(F)(F)F)c1)c1ccnc(-c2ccc(F)cc2F)n1` [Compound 76], the “Plant response rating, Cocklebur” value [1, 21] was 0, the “Cocklebur plant response rating” value ([1]; Rate 62 g/ha, Postemergence) was 1 and the “Cocklebur plant response rating” value ([1]; Rate 125 g/ha, Postemergence) was 3. The “Plant response rating, Cocklebur” value ([1]; Rate 125 g/ha, Preemergence) was 0, the “Plant response rating, Cocklebur” value ([1]; Rate 250 g/ha, Postemergence) was 4 and the “Plant response rating, Cocklebur” value ([1]; Rate 250 g/ha, Preemergence) was 0. The “Plant response rating, Corn” value [2, 21] was 0, the “Corn plant response rating” value ([2]; Rate 62 g/ha, Postemergence) was 1 and the “Corn plant response rating” value ([2]; Rate 125 g/ha, Postemergence) was 1. The “Plant response rating, Corn” value ([2]; Rate 125 g/ha, Preemergence) was 0, the “Plant response rating, Corn” value ([2]; Rate 250 g/ha, Postemergence) was 1 and the “Plant response rating, Corn” value ([2]; Rate 250 g/ha, Preemergence) was 0. The “Plant response rating, Giant foxtail” value [3, 21] was 0, the “Giant foxtail plant response rating” value ([3]; Rate 62 g/ha, Postemergence) was 0 and the “Giant foxtail plant response rating” value ([3]; Rate 125 g/ha, Postemergence) was 0. For the same molecule, the “Plant response rating, Giant foxtail” value ([3]; Rate 125 g/ha, Preemergence) was 0, the “Plant response rating, Giant foxtail” value ([3]; Rate 250 g/ha, Postemergence) was 1 and the “Plant response rating, Giant foxtail” value ([3]; Rate 250 g/ha, Preemergence) was 0. For the same molecule, the “Plant response rating, Rape” value [4, 21] was 0, the “Rape plant response rating” value ([4]; Rate 62 g/ha, Postemergence) was 1 and the “Rape plant response rating” value ([4]; Rate 125 g/ha, Postemergence) was 2. The “Plant response rating, Rape” value ([4]; Rate 125 g/ha, Preemergence) was 0, the “Plant response rating, Rape” value ([4]; Rate 250 g/ha, Postemergence) was 2 and the “Plant response rating, Rape” value ([4]; Rate 250 g/ha, Preemergence) was 0. For the same molecule, the “B. signalgrass plant response rating” value ([5]; Rate 62 g/ha, Postemergence) was 0, the “B. signalgrass plant response rating” value ([5]; Rate 62 g/ha, Preemergence) was 0 and the “B. signalgrass plant response rating” value ([5]; Rate 125 g/ha, Postemergence) was 0. For the same molecule, the “Plant response rating, B. signalgrass” value ([5]; Rate 125 g/ha, Preemergence) was 0, the “Plant response rating, B. signalgrass” value ([5]; Rate 250 g/ha, Postemergence) was 0 and the “Plant response rating, B. signalgrass” value ([5]; Rate 250 g/ha, Preemergence) was 0. For the same molecule, the “Plant response rating, Wheat” value [6, 21] was 0, the “Wheat plant response rating” value ([6]; Rate 62 g/ha, Postemergence) was 0 and the “Wheat plant response rating” value ([6]; Rate 125 g/ha, Postemergence) was 0. The “Plant response rating, Wheat” value ([6]; Rate 125 g/ha, Preemergence) was 0, the “Plant response rating, Wheat” value ([6]; Rate 250 g/ha, Postemergence) was 0 and the “Plant response rating, Wheat” value ([6]; Rate 250 g/ha, Preemergence) was 0. For the same molecule, the “Plant response rating, Soybean” value [7, 21] was 0, the “Soybean plant response rating” value ([7]; Rate 62 g/ha, Postemergence) was 0 and the “Soybean plant response rating” value ([7]; Rate 125 g/ha, Postemergence) was 0. For the same molecule, the “Plant response rating, Soybean” value ([7]; Rate 125 g/ha, Preemergence) was 0, the “Plant response rating, Soybean” value ([7]; Rate 250 g/ha, Postemergence) was 1 and the “Plant response rating, Soybean” value ([7]; Rate 250 g/ha, Preemergence) was 0. The “Plant response rating, Redroot pigweed” value [8, 21] was 0, the “Redroot pigweed plant response rating” value ([8]; Rate 62 g/ha, Postemergence) was 1 and the “Redroot pigweed plant response rating” value ([8]; Rate 125 g/ha, Postemergence) was 1. The “Plant response rating, Redroot pigweed” value ([8]; Rate 125 g/ha, Preemergence) was 0, the “Plant response rating, Redroot pigweed” value ([8]; Rate 250 g/ha, Postemergence) was 2 and the “Plant response rating, Redroot pigweed” value ([8]; Rate 250 g/ha, Preemergence) was 0. For the same molecule, the “Bedstraw plant response rating” value ([9]; Rate 62 g/ha) was 0, the “Bedstraw plant response rating” value ([9]; Rate 125 g/ha) was 0 and the “Plant response rating, Bedstraw” value ([9]; Rate 250 g/ha) was 0. The “Plant response rating, Nutsedge” value ([10]; Rate 62 g/ha, scale of 0 to 10) was 0, the “Plant response rating, Nutsedge” value ([10]; Rate 125 g/ha) was 0 and the “Plant response rating, Sugarbeets” value [11, 21] was 0. For the same molecule, the “Sugarbeets plant response rating” value ([11]; Rate 62 g/ha, Postemergence) was 1, the “Sugarbeets plant response rating” value ([11]; Rate 125 g/ha, Postemergence) was 2 and the “Plant response rating, Sugarbeets” value ([11]; Rate 125 g/ha, Preemergence) was 0. For the same molecule, the “Plant response rating, Sugarbeets” value ([11]; Rate 250 g/ha, Postemergence) was 3, the “Plant response rating, Sugarbeets” value ([11]; Rate 250 g/ha, Preemergence) was 0 and the “Plant response rating, Crabgrass” value [12, 21] was 0. The “Crabgrass plant response rating” value ([12]; Rate 62 g/ha, Postemergence) was 0, the “Crabgrass plant response rating” value ([12]; Rate 125 g/ha, Postemergence) was 0 and the “Plant response rating, Crabgrass” value ([12]; Rate 125 g/ha, Preemergence) was 0. The “Plant response rating, Crabgrass” value ([12]; Rate 250 g/ha, Postemergence) was 1, the “Plant response rating, Crabgrass” value ([12]; Rate 250 g/ha, Preemergence) was 0 and the “Plant response rating, Wild oats” value [13, 21] was 0. For the same molecule, the “Wild oats plant response rating” value ([13]; Rate 62 g/ha, Postemergence) was 0, the “Wild oats plant response rating” value ([13]; Rate 125 g/ha, Postemergence) was 0 and the “Plant response rating, Wild oats” value ([13]; Rate 125 g/ha, Preemergence) was 0. The “Plant response rating, Wild oats” value ([13]; Rate 250 g/ha, Postemergence) was 0, the “Plant response rating, Wild oats” value ([13]; Rate 250 g/ha, Preemergence) was 0 and the “Plant response rating, Blackgrass” value [14, 21] was 0. The “Blackgrass plant response rating” value ([14]; Rate 62 g/ha, Postemergence) was 0, the “Blackgrass plant response rating” value ([14]; Rate 125 g/ha, Postemergence) was 0 and the “Plant response rating, Blackgrass” value ([14]; Rate 125 g/ha, Preemergence) was 0. For the same molecule, the “Plant response rating, Blackgrass” value ([14]; Rate 250 g/ha, Postemergence) was 0, the “Plant response rating, Blackgrass” value ([14]; Rate 250 g/ha, Preemergence) was 0 and the “Plant response rating, Velvetleaf” value [15, 21] was 0. The “Velvetleaf plant response rating” value ([15]; Rate 62 g/ha, Postemergence) was 0, the “Velvetleaf plant response rating” value ([15]; Rate 125 g/ha, Postemergence) was 1 and the “Plant response rating, Velvetleaf” value ([15]; Rate 125 g/ha, Preemergence) was 0. For the same molecule, the “Plant response rating, Velvetleaf” value ([15]; Rate 250 g/ha, Postemergence) was 1, the “Plant response rating, Velvetleaf” value ([15]; Rate 250 g/ha, Preemergence) was 0 and the “Plant response rating, Morningglory” value [16, 21] was 0. The “Morningglory plant response rating” value ([16]; Rate 62 g/ha, Postemergence) was 0, the “Morningglory plant response rating” value ([16]; Rate 125 g/ha, Postemergence) was 0 and the “Plant response rating, Morningglory” value ([16]; Rate 125 g/ha, Preemergence) was 0. For the same molecule, the “Plant response rating, Morningglory” value ([16]; Rate 250 g/ha, Postemergence) was 1, the “Plant response rating, Morningglory” value ([16]; Rate 250 g/ha, Preemergence) was 0 and the “Ducksalad plant response rating” value [17, 22] was 0. For the same molecule, the “Ducksalad plant response rating” value [17, 23] was 0, the “Plant response rating, Ducksalad” value [17, 24] was 0 and the “Barnyardgrass plant response rating” value [18, 22] was 0. For the same molecule, the “Barnyardgrass plant response rating” value [18, 23] was 0, the “Plant response rating, Barnyardgrass” value [18, 24] was 0 and the “S. Flatsedge plant response rating” value [19, 22] was 0. For the same molecule, the “S. Flatsedge plant response rating” value [19, 23] was 0, the “Plant response rating, S. Flatsedge” value [19, 24] was 0 and the “Rice plant response rating” value [20, 22] was 0. The “Rice plant response rating” value [20, 23] was 0 and the “Plant response rating, Rice” value [20, 24] was 0.

— patent publication US6525001B1, “Substituted pyrimidine and pyridine herbicides” (Mid-American Commercialization Corporation, priority 1997, dated 2003)
